Measured values published in patent US20240199611A1, “ANTIBACTERIAL COMPOUNDS” (JANSSEN SCIENCES IRELAND UNLIMITED COMPANY, priority 2021, published 2024).
≈ marks a conversion by molar mass, not a printed value.

How the values were obtained:
[1] = test system: Na Ch; assay: CVS Na Ch
[2] = Mitochondrial toxicity (Glu/Gal) assay; type: cell-based
From the text: (§1) The compounds of the invention/examples may have advantages associated with in vitro potency, kill kinetics (i.e. bactericidal effect) in vitro, PK properties, food effect, safety/toxicity (including liver toxicity, coagulation, 5-LO oxygenase), metabolic stability, Ames II negativity, MNT negativity, aqueous based solubility (and ability to formulate) and/or cardiovascular effect e.g. on animals (e.g. anesthetized guinea pig). The data below that was generated/calculated may be obtained using standard methods/assays, for instance that are available in the literature or which may be performed by a supplier (e.g. Microsomal Stability Assay—Cyprotex, Mitochondrial toxicity (Glu/Gal) assay—Cyprotex, as well as literature CYP cocktail inhibition assays). In some instances, GSH was measured (reactive metabolites, glucuronidation) to observe if a dihydrodiol is observed by LCMS (fragmentation ions), which would correspond to a dihydroxylation on the core heterocycle.

[3] = GSH measurement (reactive metabolites); type: in vitro ADME
From the text: as §1

[4] = in vivo
[5] = test system: Mycobacterium tuberculosis strain EH4.0 expressing green-fluorescent protein (GFP); assay: microbe, parasite or virus in culture; type: cell-based; conditions: Test 1 (and/or Test 2), read-out: pIC50 (converted)
[6] = type: physicochemical; conditions: 30 μM; for chemical stability (% by LCMS), DMSO: 0 h; for chemical stability (% by LCMS), ACN/H2O / chemical stability (% by LCMS), ACN/0.1N HCl: 48 h; for chemical stability (% by LCMS), ACN/0.1N HCl: pH 1.6
Protocol: Chemical Stability Testing
Preliminary Protocol • Add 3 μl of a 10 mM DMSO stock solution to 1 ml of the following solvents in a 1.5 ml HPLC vial. • DMSO (reference solution) • H2O/Acetonitril 1/1 (assay solution) • 0.1N HCl/Acetonitril 1/1 (assay solution) • Mix well, […] LCMS • Compare the chromatograms of the two assay solutions with the reference solution and report the additional peaks as degradation peaks

[7] = test system: Ca Ch; conditions: read-out: CVS Ca Ch IC50
[8] = test system: M. tuberculosis H37Rv; conditions: strain M. tuberculosis H37Rv, inside macrophages; cited from earlier work
[9] = AMES II; type: cell-based
From the text: as §1

[10] = target: Kinase panel; assay: Kinase panel; type: biochemical
[11] = test system: Cyp 3A4; assay: Cyp 3A4 induction; conditions: at 1 μM

Structure (SMILES) | IC50 [5] [nM] | chemical stability (% by LCMS), DMSO [6] [%] | chemical stability (% by LCMS), ACN/H2O [6] [%] | chemical stability (% by LCMS), ACN/0.1N HCl [6] [%] | other results
CCc1nc2ncc(Cl)cn2c1C(=O)NCc1ccc(N2CCN(S(=O)(=O)C(F)(F)F)C=N2)cc1 [Compound 13] |  |  |  |  | IC50 [1]: > 10 µM; melting point: 215.87 °C
CCc1nc2ccc(Cl)cn2c1C(=O)NCc1ccc(N2CCN(S(=O)(=O)C(F)(F)F)C=N2)c(F)c1 [Compound 9] |  |  |  |  | IC50 [1]: > 10 µM
CCc1nc2ccc(Cl)cn2c1C(=O)NCc1ccc(N2CCN(S(=O)(=O)C(F)(F)F)C(OC)=N2)cc1 [Compound 6] |  |  |  |  | IC50 [1]: > 10 µM; Glu/Gal assay ratio (mitotoxicity) [2]: < 3
CCc1nc2ccc(C#N)cn2c1C(=O)NCc1ccc(N2CCN(S(=O)(=O)C(F)(F)F)C(OC)=N2)c(F)c1 [Compound 73] |  |  |  |  | IC50 [1]: > 10 µM; GSH / reactive metabolites [3]: no measure of GSH; melting point: 212.08 °C
O=C(NCc1ccc(N2CCN(S(=O)(=O)C(F)(F)F)C=N2)c(F)c1)c1c(C(F)(F)F)nc2ccccn12 [Compound 152] |  |  |  |  | GSH / reactive metabolites [3]: formation of reactive metabolites was blocked; Glu/Gal assay ratio (mitotoxicity) [2]: < 3; bioavailability [4]: good bioavailaibility
Cc1ccc2nc(C(F)F)c(C(=O)NCc3ccc(N4CCN(S(=O)(=O)C(F)(F)F)C(C(C)C)=N4)c(F)c3)n2c1 [Compound 240] | 0.603 | 100 | 100 | 100 | 
CC1=NN(c2ccc(CNC(=O)c3c(C(F)(F)F)nc4ccc(C)cn34)cc2F)CCN1S(=O)(=O)C(F)(F)F [Compound 253] | 1.86 | 100 | 100 | 100 | 
CCc1nc2ccc(Cl)cn2c1C(=O)NCc1ccc(N2CCN(S(=O)(=O)C(F)(F)F)C=N2)cc1F [Compound 16] |  |  |  |  | IC50 [1]: > 10 µM; melting point: 158.1 °C
CCc1nc2ccc(Cl)cn2c1C(=O)NCc1ccc(N2CCN(S(C)(=O)=O)C=N2)cc1 [Compound 20] |  |  |  |  | IC50 [7]: > 10 µM; melting point: 209.36 °C
CCc1nc2cc(C)c(C)cn2c1C(=O)NCc1ccc(N2CCN(S(=O)(=O)C(F)(F)F)C(C(C)C)=N2)c(F)c1 [Compound 241] | 3.47 | 100 | 100 | 100 | 
CCc1nc2ncc(C)cn2c1C(=O)NCc1ccc(N2CCN(S(=O)(=O)C(F)(F)F)C(C)=N2)c(F)c1 [Compound 251] | 0.437 | 100 | 100 | 100 | 
CC1=NN(c2ccc(CNC(=O)c3c(C(F)(F)F)nc4ncc(C)cn34)cc2F)CCN1S(=O)(=O)C(F)(F)F [Compound 257] | 6.03 | 99 | 99 | 99 | 
CCC1=NN(c2ccc(CNC(=O)c3c(C(F)(F)F)nc4ccccn34)cc2F)CCN1S(=O)(=O)C(F)(F)F [Compound 233] | 1.07 | 99 | 99 | 99 | 
CCc1nc2ccc(C)cn2c1C(=O)NCc1ccc(N2CCN(S(=O)(=O)C(F)(F)F)C(C(=O)OC)=N2)cc1 [Compound 258] | 6.17 | 99 | 99 | 100 | 
CC1=NN(c2ccc(CNC(=O)c3c(C(F)(F)F)nc4ccccn34)cc2F)CCN1S(=O)(=O)C(F)(F)F [Compound 252] | 1.2 | 99 | 99 | 99 | 
CCc1nc2ccc(Cl)cn2c1C(=O)NCc1ccc(N2CCC(c3ccc(OC(F)(F)F)cc3)CC2)cc1 [Compound Q203] |  |  |  |  | MIC50 [8]: 0.28 nM (≈ 0.156 ng/mL)
CCc1nc2ncc(C)cn2c1C(=O)NCc1ccc(N2CCN(S(=O)(=O)C(F)(F)F)C=N2)c(F)c1 [Compound 161] |  |  |  |  | IC50 [7]: > 10 µM; Glu/Gal assay ratio (mitotoxicity) [2]: < 3; AMES II [9]: negative; Kinase panel [10]: negative; bioavailability [4]: good bioavailaibility; Cyp 3A4 induction (% control) [11]: 3.0 % control
CCc1nc2ncc(C)cn2c1C(=O)NCc1cnc(N2CCN(S(=O)(=O)C(F)(F)F)C(C)=N2)c(F)c1 [Compound 255] | 6.17 | 100 | 100 | 98 | 
CCc1nc2ccc(Cl)cn2c1C(=O)NCc1ccc(N2CCN(S(=O)(=O)C(F)(F)F)C=N2)cc1 [Compound 1] |  |  |  |  | IC50 [7]: > 10 µM; Glu/Gal assay ratio (mitotoxicity) [2]: < 3; melting point: 183.46 °C; bioavailability [4]: good bioavailability
CCc1nc2ncc(C)cn2c1C(=O)NCc1ccc(N2CCN(S(=O)(=O)C(F)(F)F)C(C(C)C)=N2)c(F)c1 [Compound 248] | 0.224 | 92 | 100 | 100 | 
